Measured values from ChEMBL document CHEMBL1153831, “Azithromycin blocks quorum sensing and alginate polymer formation and increases the sensitivity to serum and stationary-growth-phase killing of Pseudomonas aeruginosa and attenuates chronic P. aeruginosa lung infection in Cftr(-/-) mice” (Antimicrob Agents Chemother, 2007).
Calls of active or inactive are those of the source. No cut-off for these calls is given here.

Experiments:
[1] = test system: Pseudomonas aeruginosa; assay: Antimicrobial activity against Pseudomonas aeruginosa NH57388A mucoid isolate harboring GFP-fused […] lasB gene infected in ftr-tml-Unc-TgN(FABPCFTR) cystic fibrosis mouse assessed as mortality at 500 mg/kg, po administered 24 hrs postinfection daily once for 5 days measured after 7 days postinfection; format: functional
[2] = test system: Pseudomonas aeruginosa; assay: Inhibition of alginate synthesis in Pseudomonas aeruginosa NH57388A mucoid isolate supernatant assessed as uronic acid concentration in dialysis bag before exhaustive dialysis at 12 ug/mL after 24 hrs by carbazole-borate assay; format: functional
[3] = test system: Pseudomonas aeruginosa; assay: Antimicrobial activity against Pseudomonas aeruginosa NH57388A mucoid isolate assessed as reduction of viable count in exponential phase at 64 ug/mL after 8 hrs; format: functional
[4] = Drug level in Cftr-tml-Unc-TgN(FABPCFTR) cystic fibrosis mouse serum at 500 mg/kg, po after 0.5 hrs; format: ADME, organism-based; set-up: dose 500 mg/kg, route oral; conditions: read-out: Drug uptake
[5] = test system: Pseudomonas aeruginosa; assay: Antimicrobial activity against Pseudomonas aeruginosa NH57388A mucoid isolate harboring GFP-fused […] lasB gene infected in ftr-tml-Unc-TgN(FABPCFTR) cystic fibrosis mouse lungs assessed as reduction in GFP signal at 250 mg/kg, iv administered 24 hrs after infection measured after 24 hrs; format: functional, organism-based; set-up: dose 250 mg/kg
[6] = test system: Pseudomonas aeruginosa; assay: Antimicrobial activity in Pseudomonas aeruginosa NH57388A mucoid isolate harboring GFP-fused […] lasB gene infected in ftr-tml-Unc-TgN(FABPCFTR) cystic fibrosis mouse lungs assessed as median alginate content in lungs at 500 mg/kg, po administered 24 hrs after infection daily once for 5 days measured after 7 days postinfection; format: functional
[7] = test system: Pseudomonas aeruginosa; assay: Inhibition of alginate synthesis in Pseudomonas aeruginosa NH57388A mucoid isolate supernatant assessed as uronic acid concentration in dialysis bag after exhaustive dialysis at 12 ug/mL after 24 hrs by carbazole-borate assay; format: functional
[8] = test system: Pseudomonas aeruginosa; assay: Antimicrobial activity in Pseudomonas aeruginosa NH57388A mucoid isolate harboring GFP-fused avian sarcoma virus lasB gene infected in ftr-tml-Unc-TgN(FABPCFTR) cystic fibrosis mouse lung assessed as fibrous spongy-like material surrounding polymorphonuclear leukocytes at 500 mg/kg, po administered 24 hrs after infection daily once for 5 days measured after 7 days postinfection by histopathology; format: functional, organism-based; set-up: dose 500 mg/kg
[9] = test system: Pseudomonas aeruginosa; assay: Increase in sensitivity of hydrogen peroxide to Pseudomonas aeruginosa NH57388A mucoid isolate expressing quorum sensing lasI assessed as increase in zone of inhibition at 12 ug/mL after 48 hrs relative to untreated bacterial control; format: functional; set-up: scale not given: the % may be the effect or the level left
[10] = test system: Pseudomonas aeruginosa; assay: Antimicrobial activity against Pseudomonas aeruginosa NH57388C nonmucoid isolate expressing quorum sensing lasI assessed as reduction of viable count at 12 ug/mL in absence of 2.5% human normal serum; format: functional
[11] = test system: Pseudomonas aeruginosa; assay: Inhibition of quorum sensing-regulated alginate production in Pseudomonas aeruginosa NH57388A mucoid isolate harboring GFP-fused […] lasB gene assessed as enzyme activity per cell at 8 ug/mL after 24 hrs relative to control; format: functional
[12] = test system: Pseudomonas aeruginosa; assay: Antimicrobial activity against Pseudomonas aeruginosa NH57388A mucoid isolate assessed as reduction of viable count in stationary phase at 2 ug/mL after 8 hrs; format: functional
[13] = test system: Pseudomonas aeruginosa; assay: Antimicrobial activity against Pseudomonas aeruginosa NH57388A mucoid isolate expressing quorum sensing lasI assessed as reduction of viable count at 12 ug/mL in presence of 2.5% human normal serum; format: functional
[14] = test system: Pseudomonas aeruginosa; assay: Inhibition of quorum sensing-regulated chitinase production in Pseudomonas aeruginosa NH57388A mucoid isolate harboring GFP-fused […] lasB gene assessed as enzyme activity per cell at 2 ug/mL after 24 hrs relative to control; format: functional
[15] = test system: Pseudomonas aeruginosa; assay: Antimicrobial activity against quorum sensing lasI-deficient isogenic nonmucoid Pseudomonas aeruginosa NH57388E mutant assessed as reduction of viable count at 12 ug/mL in presence of 2.5% human normal serum; format: functional
[16] = test system: Pseudomonas aeruginosa; assay: Inhibition of quorum sensing-regulated elastase production in Pseudomonas aeruginosa NH57388A mucoid isolate harboring GFP-fused […] lasB gene assessed as enzyme activity per cell at 2 ug/mL after 24 hrs relative to control; format: functional
[17] = test system: Pseudomonas aeruginosa; assay: Toxicity in Pseudomonas aeruginosa NH57388A mucoid isolate harboring GFP-fused […] lasB gene assessed as growth rate at 2 to 12 ug/mL after 14 hrs by molecular technology relative to control; format: organism-based
[18] = test system: Pseudomonas aeruginosa; assay: Inhibition of quorum sensing in Pseudomonas aeruginosa NH57388A mucoid isolate harboring GFP-fused […] lasB gene assessed as suppression of GFP expression after 14 hrs by molecular technology; format: functional, organism-based
[19] = Elimination half life in human; format: ADME, organism-based; conditions: in vivo, read-out: beta t1/2 (converted)
[20] = test system: Pseudomonas aeruginosa; assay: Antimicrobial activity in Pseudomonas aeruginosa NH57388A mucoid isolate harboring GFP-fused avian sarcoma virus lasB gene infected in ftr-tml-Unc-TgN(FABPCFTR) cystic fibrosis mouse lung assessed as debris-like granular material surrounding polymorphonuclear leukocytes at 500 mg/kg, po administered 24 hrs after infection daily once for 5 days measured after 7 days postinfection by histopathology; format: functional, organism-based; set-up: dose 500 mg/kg
[21] = Elimination half life in Cftr-tml-Unc-TgN(FABPCFTR) cystic fibrosis mouse model at 500 mg/kg, po; format: ADME, organism-based; set-up: dose 500 mg/kg, route oral; conditions: in vivo, read-out: beta t1/2 (converted)
[22] = test system: Pseudomonas aeruginosa; assay: Inhibition of quorum sensing-regulated chitinase production in Pseudomonas aeruginosa NH57388A mucoid isolate harboring GFP-fused […] lasB gene assessed as enzyme activity per cell at 8 ug/mL after 24 hrs relative to control; format: functional
[23] = Drug level in Cftr-tml-Unc-TgN(FABPCFTR) cystic fibrosis mouse serum at 500 mg/kg, po after 2 hrs; format: ADME, organism-based; set-up: dose 500 mg/kg, route oral; conditions: read-out: Drug uptake
[24] = test system: Pseudomonas aeruginosa; assay: Inhibition of alginate synthesis in Pseudomonas aeruginosa NH57388A mucoid isolate supernatant assessed as uronic acid concentration in inside of dialysis bag after equilibrium dialysis at 12 ug/mL after 24 hrs by carbazole-borate assay; format: functional
[25] = test system: Pseudomonas aeruginosa; assay: Increase in sensitivity of hydrogen peroxide to quorum sensing lasI-deficient isogenic Pseudomonas aeruginosa NH57388A mucoid isolate mutant assessed as increase in zone of inhibition at 12 ug/mL after 48 hrs relative to untreated bacterial control; format: functional; set-up: scale not given: the % may be the effect or the level left

CC[C@H]1OC(=O)[C@H](C)[C@@H](O[C@H]2C[C@@](C)(OC)[C@@H](O)[C@H](C)O2)[C@H](C)[C@@H](O[C@@H]2O[C@H](C)C[C@H](N(C)C)[C@H]2O)[C@](C)(O)C[C@@H](C)CN(C)[C@H](C)[C@@H](O)[C@]1(C)O [AZITHROMYCIN]
Activity [1]: 24% | Activity [2]: 316 µg/mL | Activity [3]: 87% | concentration at 0.5 h [4]: 2.9 µg/mL | Activity [5]: Active | Activity [6]: 10 µg/mL | Activity [7]: 103 µg/mL | Activity [8]: Active | Activity [9]: 31% | CFU [10]: 110 ×10⁵ /ml | inhibition at 8 µg/mL [11]: 52% | Activity [12]: 88% | CFU [13]: 2.5 ×10² /ml | inhibition at 2 µg/mL [14]: 66% | CFU [15]: 2 ×10³ /ml | inhibition at 2 µg/mL [16]: 77% | Activity [17]: Non-toxic | Activity [18]: Dose-dependent effect | half-life [19]: 68 h | Activity [20]: Active | half-life [21]: 2.3 h | inhibition at 8 µg/mL [22]: 10% | concentration at 2 h [23]: 3.1 µg/mL | Activity [24]: 316 µg/mL | Activity [25]: 43%
